Assay results taken from patent US20080176866A1, “NOVEL HETARYL-PHENYLENEDIAMINE-PYRIMIDINES AS PROTEIN KINASE INHIBITORS” (priority 2006, published 2008).

Key:
Type in all cases: biochemical
CDK2/CycE = biological target: T1, CDK2/CycE (Homo sapiens, UniProt P24941); assay: CDK2/CycE kinase assay (HTRF); conditions: 10 μM ATP
T1 construct: GST; purchased ProQinase GmbH, Freiburg; host or cells: baculovirus-infected insect cells (Sf9)
Method: The CDK2/CycE inhibitory activity of the substances of this invention was measured in the CDK2/CycE-HTRF assay (HTRF=Homogeneous Time Resolved Fluorescence) described in the following paragraphs.
Recombinant CDK2-GST and CycE-GST fusion proteins purified from baculovirus-infected insect cells (Sf9) were purchased from ProQinase GmbH, Freiburg. The substrate used for the kinase reaction was the biotinylated peptide biotin-Ttds-YISPLKSPYKISEG (C terminus in amide form) which can be purchased for example from JERINI Peptide Technologies (Berlin).
CDK2/CycE was incubated in the presence of various concentrations of test substances in 5 μL of assay buffer [50 mM Tris/HCl pH 8.0, 10 mM MgCl2, 1.0 mM dithiothreitol, 0.1 mM sodium orthovanadate, 10 μM adenosine triphosphate (ATP), 0.75 μM substrate, 0.01% (v/v) Nonidet-P40 (Sigma), 1% (v/v) dimethyl sulphoxide] at 22° C. for 60 min. The concentration of CDK2/CycE was adapted to the particular activity of the enzyme and adjusted so that the assay operated in the linear range. Typical concentrations were in the region of 1 ng/ml. The reaction was stopped by adding 5 μl of a solution of HTRF detection reagents (0.2 μM streptavidin-XLent and 3.4 nM phospho-(Ser) CDKs substrate antibody [product #2324B, Cell Signaling Technology, Danvers, Mass., USA] and 4 nM Prot-A-EuK [protein A labelled with Europium cryptate from C is biointernational, France, product No. 61 PRAKLB]) in aqueous EDTA solution (100 mM EDTA, 800 mM KF, 0.2% (w/v) bovine serum albumin (BSA) in 100 mM HEPES/NaOH pH 7.0).
(§1) The resulting mixture was incubated at 22° C. for 1 h in order to allow formation of a complex of the biotinylated phosphorylated substrate and the detection reagents. The amount of phosphorylated substrate was then estimated by measuring the resonance energy transfer from the Prot-A-EuK to the streptavidin-XLent. For this purpose, the fluorescence emissions at 620 nm and 665 nm after excitation at 350 nm were measured in an HTRF measuring instrument, e.g. a Rubystar (BMG Labtechnologies, Offenburg, Germany) or a Viewlux (Perkin-Elmer). The ratio of the emissions at 665 nm and at 622 nm was taken as a measure of the amount of phosphorylated substrate. The data were normalized (enzymic reaction without inhibitor=0% inhibition, all other assay components but no enzyme=100% inhibition) and IC50 values were calculated with a 4-parameter fit using an inhouse software.

KDR kinase = biological target: T2, KDR kinase (Homo sapiens, UniProt P35968); assay: KDR kinase assay (HTRF); conditions: KDR kinase-GST, 10 μM ATP
T2 construct: GST; purchased ProQinase GmbH, Freiburg; host or cells: baculovirus-infected insect cells (Sf9)
Method: The KDR-inhibitory activity of the substances of this invention was measured in the KDR-HTRF assay (HTRF=Homogeneous Time Resolved Fluorescence) described in the following paragraphs.
Recombinant KDR kinase-GST fusion protein purified from baculovirus-infected insect cells (Sf9) was purchased from ProQinase GmbH, Freiburg. The substrate used for the kinase reaction was the biotinylated peptide biotin-Ahx-DFGLARDMYDKEYYSVG (C terminus in acid form) which can be purchased for example from Biosynthan GmbH (Berlin-Buch, Germany).
KDR kinase was incubated in the presence of various concentrations of test substances in 5 μL of assay buffer [50 mM Hepes/NaOH pH 7.0, 25 mM MgCl2, 5 mM MnCl2, 1.0 mM dithiothreitol, 0.1 mM sodium orthovanadate, 10 μM adenosine triphosphate (ATP), 0.5 μM substrate, 0.001% (v/v) Nonidet-P40 (Sigma), 1% (v/v) dimethyl sulphoxide] at 22° C. for 45 min. The concentration of KDR was adapted to the particular activity of the enzyme and adjusted so that the assay operated in the linear range. The reaction was stopped by adding 5 μl of a solution of HTRF detection reagents (0.1 μM streptavidin-XLent and 2 nM PT66-Eu chelate, a Europium chelate-labelled anti-phospho-tyrosine antibody from Perkin Elmer) in aqueous EDTA solution (125 mM EDTA, 0.2% (w/v) bovine serum albumin (BSA) in 50 mM HEPES/NaOH pH 7.0).
as §1, with “of” for “of a complex of”, “streptavidin-XLent and PT66-Eu chelate.” for “detection reagents.”, “PT66-Eu chelate” for “Prot-A-EuK”

CDK1/CycB = biological target: T3, CDK1/CycB (Homo sapiens, UniProt P06493); assay: CDK1/CycB kinase assay; conditions: 0.5 μM ATP, histone IIIS, 33P filter assay
T3 construct: GST; purchased ProQinase GmbH, Freiburg; host or cells: baculovirus-infected insect cells (Sf9)
Method: Recombinant CDK1- and CycB-GST fusion proteins, purified from baculovirus-infected insect cells (Sf9), were purchased from ProQinase GmbH, Freiburg. The histone IIIS used as kinase substrate can be purchased from Sigma.
CDK1/CycB (5 ng/μL) was incubated in the presence of various concentrations of test substances (0 μM, and within the range 0.01-100 μM) in 40 μL of assay buffer [50 mM Tris/HCl pH 8.0, 10 mM MgCl2, 0.1 mM Na ortho-vanadate, 1.0 mM dithiothreitol, 0.025% PEG 20000, 0.5 μM ATP, 10 μM histone IIIIS, 0.2 μCi/measurement point ^33P-gamma ATP, 0.05% NP40, 1.25% dimethyl sulphoxide] at 22° C. for 10 min. The reaction was stopped by adding EDTA solution (250 mM, pH 8.0, 15 μl/measurement point).
15 μl of each reaction mixture were loaded onto P30 filter strips (from Wallac), and non-incorporated ^33P-ATP was removed by washing the filter strips three times in 0.5% strength phosphoric acid for 10 min each time. After the filter strips had been dried at 70° C. for 1 hour, the filter strips were covered with scintillator strips (MeltiLex™ A, from Wallac) and baked at 90° C. for 1 hour. The amount of incorporated ^33P (substrate phosphorylation) was determined by scintillation measurement in a gamma radiation counter (Wallac).
The measured data were normalized to 0% inhibition (enzyme reaction without inhibitor) and 100% inhibition (all assay components except enzyme). The IC50 values were determined by means of a 4-parameter fit using the company's own software.

T3 sequence (P06493 whole entry): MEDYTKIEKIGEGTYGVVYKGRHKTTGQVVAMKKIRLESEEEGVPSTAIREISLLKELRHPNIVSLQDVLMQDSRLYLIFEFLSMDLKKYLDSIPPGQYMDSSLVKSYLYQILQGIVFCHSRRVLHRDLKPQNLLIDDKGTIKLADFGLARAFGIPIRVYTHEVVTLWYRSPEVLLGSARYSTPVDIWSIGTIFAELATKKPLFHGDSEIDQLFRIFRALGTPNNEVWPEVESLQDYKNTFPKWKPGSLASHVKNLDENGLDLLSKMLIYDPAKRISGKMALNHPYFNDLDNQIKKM
T3 sequence (P14635 whole entry partner): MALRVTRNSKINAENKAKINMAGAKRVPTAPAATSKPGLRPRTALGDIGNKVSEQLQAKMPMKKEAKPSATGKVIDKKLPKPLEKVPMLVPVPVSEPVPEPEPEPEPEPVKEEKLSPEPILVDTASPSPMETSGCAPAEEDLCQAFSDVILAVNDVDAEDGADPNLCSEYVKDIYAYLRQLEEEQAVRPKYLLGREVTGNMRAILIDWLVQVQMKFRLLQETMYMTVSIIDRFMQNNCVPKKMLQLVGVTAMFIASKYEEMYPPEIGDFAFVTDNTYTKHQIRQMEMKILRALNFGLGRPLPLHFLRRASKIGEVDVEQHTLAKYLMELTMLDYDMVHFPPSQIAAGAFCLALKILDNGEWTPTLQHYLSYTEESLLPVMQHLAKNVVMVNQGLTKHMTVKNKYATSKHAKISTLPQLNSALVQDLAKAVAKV
T2 sequence (P35968 807-1356 limits assumed): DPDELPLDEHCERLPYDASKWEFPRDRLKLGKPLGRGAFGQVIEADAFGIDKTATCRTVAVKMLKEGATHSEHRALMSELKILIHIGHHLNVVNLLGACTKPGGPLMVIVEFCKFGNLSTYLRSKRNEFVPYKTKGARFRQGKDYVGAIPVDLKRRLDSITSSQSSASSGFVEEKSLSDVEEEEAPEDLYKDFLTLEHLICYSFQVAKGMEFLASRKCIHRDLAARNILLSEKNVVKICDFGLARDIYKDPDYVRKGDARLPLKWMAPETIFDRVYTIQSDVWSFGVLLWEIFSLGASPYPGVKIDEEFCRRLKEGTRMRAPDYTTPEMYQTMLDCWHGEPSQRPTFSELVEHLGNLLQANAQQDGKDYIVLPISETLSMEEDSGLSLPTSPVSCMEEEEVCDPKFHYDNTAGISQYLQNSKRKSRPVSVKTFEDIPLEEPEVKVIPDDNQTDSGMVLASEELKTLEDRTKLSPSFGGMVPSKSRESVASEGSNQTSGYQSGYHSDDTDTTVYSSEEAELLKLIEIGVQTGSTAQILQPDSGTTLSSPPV

Row | Compound | IC50 (CDK2/CycE) [µM] | IC50 (KDR kinase) [µM] | IC50 (CDK1/CycB) [µM]
1 | C[C@@H](O)[C@@H](C)Nc1nc(Nc2ccc(Oc3ncccn3)cc2)ncc1Br [Example 34] | 0.0091 | 0.1 | 0.035
2 | C[C@@H](O)[C@@H](C)Oc1nc(Nc2cccc(Nc3nccc(OCCO)n3)c2)ncc1Br [Example 27] | 0.0024 | 0.032 | 0.016
3 | CC(=O)NCCNc1nc(Nc2cccc(Nc3ncc(Br)c(NCCNC(C)=O)n3)c2)ncc1Br [Example 30] | 5.8 | 0.021 | 
4 | CSc1nc(Nc2ccc(Nc3ccccn3)cc2)ncc1Br [Example 29] | 0.26 | > 20 | > 1
5 | C[C@@H](O)[C@@H](C)Oc1nc(Nc2ccc(Nc3ncc(Cl)c(NCCO)n3)cc2)ncc1Br [Example 21] | 0.0022 | 0.073 | 0.054
6 | C[C@@H](O)[C@@H](C)Nc1nc(Nc2ccc(Oc3cccnc3)cc2)ncc1Br [Example 33] | 0.0066 | 0.05 | 0.078
7 | C[C@@H](O)[C@@H](C)Oc1nc(Nc2ccc(Nc3ncc(Br)cn3)cc2)ncc1Br [Example 24] | 0.0062 | 0.24 | 0.11
8 | C[C@@H](O)[C@@H](C)Sc1nc(Nc2ccc(Nc3ncc(Cl)c(NCCO)n3)cc2)ncc1Br [Example 44] | 0.37 | 7.3 | > 1
9 | C[C@@H](O)[C@@H](C)Oc1nc(Nc2cccc(Nc3ncccn3)c2)ncc1Br [Example 25] | 0.002 | 0.075 | 0.014
10 | Cc1cnc(Nc2ccc(Nc3ncc(Br)c(O[C@H](C)[C@@H](C)O)n3)cc2)nc1NCCO [Example 19] | 0.0022 | 0.1 | 0.051
11 | C[C@@H](O)[C@@H](C)Nc1nc(Nc2ccc(Sc3nncn3C)cc2)ncc1Br [Example 39] | 0.0013 | 0.041 | 0.011

Results, then the compound that gave them:

Row | IC50 (CDK2/CycE) [µM] | IC50 (KDR kinase) [µM] | IC50 (CDK1/CycB) [µM] | Compound
12 | 0.002 | 0.083 | 0.023 | C[C@@H](O)[C@@H](C)Oc1nc(Nc2ccc(Nc3nccc(N)n3)cc2)ncc1Br [Example 16]
13 | 0.0028 | 0.044 | 0.028 | C[C@@H](O)[C@@H](C)Oc1nc(Nc2ccc(Nc3nccc(OCCO)n3)cc2)ncc1Br [Example 8, (2R,3R)-3-(5-Bromo-2-{4-[4-(2-hydroxyethoxy)pyrimidin-2-ylamino]-phenylamino}pyrimidin-4-yloxy)butan-2-ol]
14 | 0.0048 | 0.12 | 0.13 | COc1ccnc(Nc2ccc(Nc3ncc(Br)c(O[C@H](C)[C@@H](C)O)n3)cc2)n1 [Example 22]
15 | 0.0029 | 0.074 | 0.027 | C[C@@H](O)[C@@H](C)Oc1nc(Nc2ccc(Nc3ncccn3)cc2)ncc1Br [Example 15]
16 | 0.0044 | 0.062 | 0.071 | C[C@@H](O)[C@@H](C)Oc1nc(Nc2ccc(Nc3nccc(N(C)C)n3)cc2)ncc1Br [Example 17]
17 | 0.0059 | 0.14 | 0.04 | C[C@@H](O)[C@@H](C)Oc1nc(Nc2ccc(Nc3nccc(NCCN(C)C)n3)cc2)ncc1Br [Example 18]
